# Data published in patent US9499790B2, “Method for promoting differentiation of pluripotent stem cells into cardiac muscle cells” (Kyoto University, priority 2010, dated 2016).
# B1: G-CSF: granulocyte-colony stimulating factor (protein, UniProt P09919 31-207, looked up)
# Granulocyte …: TPLGPASSLPQSFLLKCLEQVRKIQGDGAALQEKLVSECATYKLCHPEELVLLGHSLGIPWAPLSSCPSQALQLAGCLSQLHSGLFLYQGLLQALEGISPELGPTLDTLQLDVADFATTIWQQMEELGMAPALQPTQGAMPAFASAFQRRAGGVLVASHLQSFLEVSYRVLRHLAQP
# Assays:
# Type in all cases: cell-based
# [1] = test system: Wnt signaling target genes in human iPS cells; assay: Gene expression analysis by DNA array and quantitative polymerase chain reaction; details: FIG. 9
# Method: (in the order of the genes whose expression were reduced most 12 hours later) HOXA1, MSGN1, NKD1, T, TNFRSF11B, DKK1, DKK4, CDX2, MSX1, NODAL, FGF4, PAPPA, PRRX1, LRAT, CYP1B1, SLC34A2, AXIN2, LGL1, SPS, MIXL1, APCDD1 and DSEL. […] The analyzed genes were as follows: MSGN1, HOXA1; T, MIXL1; Dkk1, AXIN2; NODAL and FGF4 (all known as Wnt signaling target genes).
# Monkey ES cells = assay: Cardiac muscle cell differentiation of monkey ES cells, 6-well plate, GFP expression observed at day 14; details: for effect of BIO on the compound's effect of cardiac muscle cell differentiation (GFP expression): BIO 5 μM added together with the compound during day 4 to 10; for effect of BIO on the compound's effect of cardiac muscle cell differentiation (GFP expression) / increase in the GFP expression level: GFP at day 14
# Source text: In the same manner as Example 2, the effects of promoting cardiac muscle cell differentiation were compared among KY02111 and N11474, known Wnt signaling inhibitors (IWP2, XAV939 and IWR1), proteins known to be effective in promoting cardiac muscle cell differentiation (G-CSF, IGFBP4, Dkk1 and cytokines (a mixture of bFGF, BMP4, VEGF, DKK1 and Activin A)).
# The effect of BIO, a Wnt signaling activator, on the effect of promoting cardiac muscle cell differentiation of KY02111, XAV939 and IWP2 was analyzed. […]
# [2] = test system: monkey ES cells (CMK 6.4 cynomolgus monkey ES cell line); assay: Cardiac muscle cell differentiation of monkey ES cells, compound day 4 to 8, GFP fluorescence at day 10 (MetaMorph); details: for effect of promoting cardiac muscle cell differentiation, carbon chain length (n) series: FIG. 16
# Source text: Compounds substituted at the position R7 of Formula 1, which corresponds to Cl of KY02111, were synthesized and examined for the effect of promoting cardiac muscle cell differentiation in a dose-dependent manner in monkey ES cells as described in Example 2. Specifically, a vector expressing green fluorescent protein (GFP) under control of promoter of α-MHC gene, a marker of cardiac muscle cell differentiation, was introduced into monkey ES cells (CMK 6.4 cynomolgus monkey ES cell line) and the cells were seeded on 6-well culture plates (Asahi Glass/5816-006: Ezview culture plate) in 4.0×10^5 cells/well, and cultured in an IMDM-based differentiation medium for cardiac muscle cells (200 ml IMDM (Sigma) containing 50 ml bovine fetal serum (GIBCO), 2.5 ml MEM non-essential amino acid solution (Sigma), 2.5 ml penicillin-streptomycin (GIBCO), 2.5 ml 200 mM L-glutamine, 2 μl 2-mercaptoethanol). Each compound was added to the cells during day 4 to day 8 of the cardiac muscle cell differentiation culture, and the GFP fluorescence was analyzed at day 10 by using MetaMorph imaging system.
# [3] = nitrovin 1 μM during day 8 to 12, singly
molecule,measurement,setting,value
"O=C1Nc2cc(Br)ccc2/C1=C1/Nc2ccccc2/C1=N\O [BIO, reference compound]","expressions of MSGN1, HOXA1, T, MIXL1, Dkk1, AXIN2, NODAL and FGF4 (Wnt signaling target genes) by qPCR",[1],increased
"Cc1ccc2nc(NC(=O)CSc3nc4c(c(=O)n3-c3ccccc3)SCC4)sc2c1 [IWP2, reference compound]","expressions of MSGN1, HOXA1, T, MIXL1, Dkk1, AXIN2, NODAL and FGF4 (Wnt signaling target genes) by qPCR",[1],reduced
same,effect of BIO on the compound's effect of cardiac muscle cell differentiation (GFP expression),Monkey ES cells,inhibited
"COc1ccc(CCC(=O)Nc2nc3ccc([N+](=O)[O-])cc3s2)cc1OC [KY01042, 2-(3-(3,4-dimethoxyphenyl)propanamide)-6-nitrobenzothiazole]",increase in the GFP expression level,Monkey ES cells; 10 μM during day 4 to 10,7000%
"COc1ccc(CC(=O)Nc2nc3ccc(I)cc3s2)cc1OC [SO3031, 2-(2-(3,4-dimethoxyphenyl)acetamide)-6-iodobenzothiazole]","effect of promoting cardiac muscle cell differentiation, carbon chain length (n) series",[2],higher effect compared to KY02111
"COc1ccc(CCCC(=O)Nc2nc3ccc(I)cc3s2)cc1OC [SO3042, 2-(4-(3,4-dimethoxyphenyl)butamide)-6-iodobenzothiazole]","effect of promoting cardiac muscle cell differentiation, SO2031 versus SO3042","[2]; 0.1 μM, 0.4 μM and 2 μM, separate experiment, FIG. 17",comparable effect
same,"effect of promoting cardiac muscle cell differentiation, carbon chain length (n) series",[2],higher effect compared to KY02111
same,effect compared to SO2031 (KY02-I),[2]; high dose (10 μM or 30 μM),1.3 times
same,"effect of promoting cardiac muscle cell differentiation, SO3042 versus SO2031","[2]; higher dose (10 μM), FIG. 17",slightly higher than that of SO2031
same,effect compared to SO3031 (KY01-I),[2]; low dose (0.1 μM),2.8 times
"Oc1nc(-c2ccc(C(F)(F)F)cc2)nc2c1CSCC2 [XAV939, reference compound]","expressions of MSGN1, HOXA1, T, MIXL1, Dkk1, AXIN2, NODAL and FGF4 (Wnt signaling target genes) by qPCR",[1],reduced
same,effect of BIO on the compound's effect of cardiac muscle cell differentiation (GFP expression),Monkey ES cells,inhibited
"N=C(N)NN=C(/C=C/c1ccc([N+](=O)[O-])o1)/C=C/c1ccc([N+](=O)[O-])o1 [nitrovin, reference compound]",increase in the GFP expression level,Monkey ES cells; 5 μM during day 8 to 14,about 400%
same,increase in the GFP expression level versus Control (DMSO),Monkey ES cells; [3],about 3 times
same,proportion of beating colonies,Monkey ES cells; [3],about 16%
same,ratio of number of GFP colonies,Monkey ES cells; [3],about 22%
B1,increase in the GFP expression level,Monkey ES cells; 5 ng/ml during day 4 to 10,about 250%
